Results: paper PMC8286840, “Identifying SARS-CoV-2 antiviral compounds by screening for small molecule inhibitors of Nsp3 papain-like protease” (Biochemical Journal, 2021)
Counter-ions that a name gives are not always drawn. Like-named read-outs stand apart in the source and are kept apart here.

Assays:
[1] = biological target: T1, SARS-CoV-2 PLpro (nsp3 1564–1878) (Severe acute respiratory syndrome coronavirus 2, UniProt P0DTD1); test: biochemical; set-up: FRET-quenched peptide (Pro3) cleavage by PLpro, 10 min pre-incubation, slope over 20 min, normalised to no-compound control; details: low concentration screen, read-out: % of control remaining
[2] = biological target: T1, SARS-CoV-2 PLpro (nsp3 1564–1878); test: biochemical; set-up: FRET-quenched peptide (Pro3) cleavage by PLpro, 10 min pre-incubation, slope over 20 min, normalised to no-compound control; details: high concentration screen, read-out: % of control remaining

## CCOC(=O)C1=C(C)NC(C)=C(C(=O)OC)C1c1cccc(Cl)c1Cl (stereo not shown) [Felodipine]
[1]; Well no.=521
  remaining activity at 1.25 µM: 106%
[1]; Well no.=1757
  remaining activity at 1.25 µM: 99.7%
[2]; Well no.=1757
  remaining activity at 3.75 µM: 102%

## Nc1nc2c(ncn2[C@@H]2O[C@H](COP(=O)(O)OP(=O)(O)O)[C@@H](O)[C@H]2O)c(=O)[nH]1 [Guanosine 5'-diphosphate disodium salt]
[1]; Well no.=8939
  remaining activity at 1.25 µM: 98.9%
[2]; Well no.=8939
  remaining activity at 3.75 µM: 96.6%

## CN1c2ccccc2C(=O)N2CCc3c([nH]c4ccccc34)C21 (stereo in doubt) [Evodiamine]
[1]; Well no.=3809
  remaining activity at 1.25 µM: 95.1%
[2]; Well no.=3809
  remaining activity at 3.75 µM: 98.5%

## O=S(=O)(O)c1cc(S(=O)(=O)O)c2c(N=Nc3ccc(S(=O)(=O)O)c4ccccc34)c(O)ccc2c1 [Ponceau 4R]
[1]; Well no.=8550
  remaining activity at 1.25 µM: 104%
[2]; Well no.=8550
  remaining activity at 3.75 µM: 102%

## CCCCC[C@H](O)CC(=O)CCc1ccc(O)c(OC)c1 [Gingerol]
[1]; Well no.=3319
  remaining activity at 1.25 µM: 97%
[2]; Well no.=3319
  remaining activity at 3.75 µM: 101%

## O=C(Nc1cccc(Nc2nccc(Nc3cccc(C(F)(F)F)c3)n2)c1)C1CC1 [Aurora Kinase Inhibitor III]
[1]; Well no.=2326
  remaining activity at 1.25 µM: 105%
[1]; Well no.=2659
  remaining activity at 1.25 µM: 95.7%
[2]; Well no.=2326
  remaining activity at 3.75 µM: 102%
[2]; Well no.=2659
  remaining activity at 3.75 µM: 94%

## CC(=O)OCC1=C(C(=O)O)N2C(=O)[C@@H](NC(=O)CSc3ccncc3)[C@H]2SC1 [Cephapirin sodium]
[1]; Well no.=188
  remaining activity at 1.25 µM: 101%
[2]; Well no.=188
  remaining activity at 3.75 µM: 99.7%

## CC(C)(F)C[C@H](N[C@@H](c1ccc(-c2ccc(S(C)(=O)=O)cc2)cc1)C(F)(F)F)C(=O)NC1(C#N)CC1 [Odanacatib (MK-0822)]
[1]; Well no.=8836
  remaining activity at 1.25 µM: 88.7%
[2]; Well no.=8836
  remaining activity at 3.75 µM: 92.8%

## Cc1csc(-c2nnc(Nc3ccc(Oc4ncccc4-c4ccnc(N)n4)cc3)c3ccccc23)c1 [AMG 900]
[1]; Well no.=5023
  remaining activity at 1.25 µM: 97.2%
[2]; Well no.=5023
  remaining activity at 3.75 µM: 100%

## CCCCCCOC(=O)[C@]1(O)C[C@@H]2O[C@@]1(C)n1c3ccccc3c3c4c(c5c6ccccc6n2c5c31)C(=O)NC4 [KT5720]
[1]; Well no.=2481
  remaining activity at 1.25 µM: 105%
[2]; Well no.=2481
  remaining activity at 3.75 µM: 109%

## O=c1ccc2ccc(O)c(O)c2o1 [7,8-dihydroxy-2H-chromen-2-one]
[1]; Well no.=5782
  remaining activity at 1.25 µM: 105%
[2]; Well no.=5782
  remaining activity at 3.75 µM: 108%

## OC[C@H]1O[C@@H](n2cnc3c(NC4CCCC4)nc(Cl)nc32)[C@H](O)[C@@H]1O [2-Chloro-N6-cyclopentyladenosine]
[1]; Well no.=439
  remaining activity at 1.25 µM: 98.2%
[2]; Well no.=439
  remaining activity at 3.75 µM: 102%

## CCC(C)(C)c1ccc(CC(C)CN2C[C@@H](C)O[C@@H](C)C2)cc1 (stereo partly shown) [Amorolfine]
[1]; Well no.=1748
  remaining activity at 1.25 µM: 99%
[2]; Well no.=1748
  remaining activity at 3.75 µM: 101%

## N[C@@H](CCC(=O)N[C@@H](CSN=O)C(=O)NCC(=O)O)C(=O)O [S-Nitrosoglutathione]
[1]; Well no.=855
  remaining activity at 1.25 µM: 103%
[2]; Well no.=855
  remaining activity at 3.75 µM: 104%

## COC(=O)c1ccccc1O [Methyl salicylate]
[1]; Well no.=1716
  remaining activity at 1.25 µM: 102%
[2]; Well no.=1716
  remaining activity at 3.75 µM: 101%

## CN(C)c1cc(NC(=O)CNC(C)(C)C)c(O)c2c1C[C@H]1C[C@H]3[C@H](N(C)C)C(O)=C(C(N)=O)C(=O)[C@@]3(O)C(O)=C1C2=O [Tigecycline]
[1]; Well no.=4813
  remaining activity at 1.25 µM: 99%
[2]; Well no.=4813
  remaining activity at 3.75 µM: 107%

## CCCCC[C@H](O)/C=C/C1=C(C/C=C\CCCC(=O)O)C(=O)CC1 [Prostaglandin B2]
[1]; Well no.=4471
  remaining activity at 1.25 µM: 96.7%
[2]; Well no.=4471
  remaining activity at 3.75 µM: 101%

## O=P1(NCCCl)OCCCN1CCCl (stereo not shown) [Ifosfamide]
[1]; Well no.=2220
  remaining activity at 1.25 µM: 97.2%
[2]; Well no.=2220
  remaining activity at 3.75 µM: 98.6%

## CCCNCC(O)COc1ccccc1C(=O)CCc1ccccc1 (stereo not shown) [Propafenone]
[1]; Well no.=1641
  remaining activity at 1.25 µM: 109%
[2]; Well no.=1641
  remaining activity at 3.75 µM: 110%

## OCC1=C[C@@H](O)[C@@H]2C=CO[C@@H](O[C@@H]3O[C@H](CO)[C@@H](O)[C@H](O)[C@H]3O)[C@H]12 [Aucubin]
[1]; Well no.=3162
  remaining activity at 1.25 µM: 99.3%
[2]; Well no.=3162
  remaining activity at 3.75 µM: 97.6%

## CC(=O)Nc1ccc(CC(=O)O)cc1 [Actarit]
[1]; Well no.=1907
  remaining activity at 1.25 µM: 96.1%
[2]; Well no.=1907
  remaining activity at 3.75 µM: 95.2%

## O=S(=O)(c1ccccc1)c1cnc2c(N3CCNCC3)cccc2c1 [SB-742457]
[1]; Well no.=4839
  remaining activity at 1.25 µM: 98.1%
[1]; Well no.=7183
  remaining activity at 1.25 µM: 94.6%
[2]; Well no.=4839
  remaining activity at 3.75 µM: 104%
[2]; Well no.=7183
  remaining activity at 3.75 µM: 91.3%

## CCCCCN(C)CCC(O)(P(=O)(O)O)P(=O)(O)O [Ibandronate]
[1]; Well no.=1933
  remaining activity at 1.25 µM: 107%
[2]; Well no.=1933
  remaining activity at 3.75 µM: 102%

## CN1N=C2CCN(C(=O)[C@@H](COCc3ccccc3)NC(=O)C(C)(C)N)C[C@@]2(Cc2ccccc2)C1=O [Capromorelin (Tartrate)]
[1]; Well no.=7235
  remaining activity at 1.25 µM: 96.9%
[2]; Well no.=7235
  remaining activity at 3.75 µM: 102%

## Cc1[nH]cnc1CN1CCc2c(c3ccccc3n2C)C1=O [Alosetron (Hydrochloride)]
[1]; Well no.=8289
  remaining activity at 1.25 µM: 105%
[2]; Well no.=8289
  remaining activity at 3.75 µM: 99.5%

## c1cnc2cc3c(cc2n1)[C@@H]1CNC[C@H]3C1 [Varenicline tartrate]
[1]; Well no.=4855
  remaining activity at 1.25 µM: 98.1%
[2]; Well no.=4855
  remaining activity at 3.75 µM: 103%

## Cc1cncc(CN2CCC(=C3c4ccc(Cl)cc4CCc4cccnc43)CC2)c1 [Rupatadine (Fumarate)]
[1]; Well no.=7665
  remaining activity at 1.25 µM: 98.2%
[2]; Well no.=7665
  remaining activity at 3.75 µM: 102%

## Cc1c(Cl)cccc1Nc1ccccc1C(=O)O [Tolfenamic acid]
[1]; Well no.=1996
  remaining activity at 1.25 µM: 97.1%
[2]; Well no.=1996
  remaining activity at 3.75 µM: 99.1%

## C=CCn1c(=O)c2cnc(Nc3ccc(N4CCN(C)CC4)cc3)nc2n1-c1cccc(C(C)(C)O)n1 [MK-1775]
[1]; Well no.=4947
  remaining activity at 1.25 µM: 102%
[2]; Well no.=4947
  remaining activity at 3.75 µM: 99.7%

## O=C(/C=C/c1ccc(O)cc1)CC(=O)/C=C/c1ccc(O)cc1 [bis-demethoxycurcumin]
[1]; Well no.=4089
  remaining activity at 1.25 µM: 98.7%
[2]; Well no.=4089
  remaining activity at 3.75 µM: 101%

## C[C@H](NCc1ccc(OCc2cccc(F)c2)cc1)C(N)=O [Safinamide mesylate salt]
[1]; Well no.=5442
  remaining activity at 1.25 µM: 89.5%
[2]; Well no.=5442
  remaining activity at 3.75 µM: 94.5%

## O=C1NC(=O)/C(=C/c2ccc3nccc(-c4ccncc4)c3c2)S1 [GSK1059615]
[1]; Well no.=5191
  remaining activity at 1.25 µM: 104%
[2]; Well no.=5191
  remaining activity at 3.75 µM: 99.2%

## Nc1ccc(S(=O)(=O)Nc2cncc(Cl)n2)cc1 [Sulfaclozine (sodium)]
[1]; Well no.=7458
  remaining activity at 1.25 µM: 96.2%
[2]; Well no.=7458
  remaining activity at 3.75 µM: 93.3%

## Cn1cc(-c2ccc3nnc(C(F)(F)c4ccc5ncccc5c4)n3n2)cn1 [JNJ38877605]
[1]; Well no.=2887
  remaining activity at 1.25 µM: 101%
[2]; Well no.=2887
  remaining activity at 3.75 µM: 102%
